These results are taken from PMC9653409, “Generative deep learning enables the discovery of a potent and selective RIPK1 inhibitor” (Nature Communications, 2022).

Data set [1] concerns the target T1, RIPK1 (Homo sapiens, UniProt Q13546).
T1 sequence (Q13546 1-671): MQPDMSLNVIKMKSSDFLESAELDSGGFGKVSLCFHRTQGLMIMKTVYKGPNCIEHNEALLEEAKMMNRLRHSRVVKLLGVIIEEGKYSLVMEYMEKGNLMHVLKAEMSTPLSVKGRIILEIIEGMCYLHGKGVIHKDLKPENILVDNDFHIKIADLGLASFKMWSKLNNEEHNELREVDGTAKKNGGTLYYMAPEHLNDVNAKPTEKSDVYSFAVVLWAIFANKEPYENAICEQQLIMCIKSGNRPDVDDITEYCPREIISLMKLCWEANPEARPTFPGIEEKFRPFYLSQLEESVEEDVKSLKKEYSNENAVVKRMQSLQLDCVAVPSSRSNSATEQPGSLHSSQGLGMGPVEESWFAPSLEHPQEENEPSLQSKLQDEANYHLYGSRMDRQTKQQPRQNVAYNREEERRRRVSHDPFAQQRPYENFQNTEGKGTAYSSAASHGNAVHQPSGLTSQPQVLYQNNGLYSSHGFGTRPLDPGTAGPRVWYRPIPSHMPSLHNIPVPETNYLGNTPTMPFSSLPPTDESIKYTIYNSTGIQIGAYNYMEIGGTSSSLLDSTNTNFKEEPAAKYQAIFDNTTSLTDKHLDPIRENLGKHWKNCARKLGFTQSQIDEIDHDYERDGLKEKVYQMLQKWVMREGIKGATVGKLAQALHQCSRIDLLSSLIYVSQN
The conditions noted are these: cited from earlier work.

For a further data set, the system named is HT29 cells. Kind of data set: TSZ-induced HT29 cell necroptosis model (CCK8). The format is cell-based. To be noted: Homo sapiens, HT-29; TSZ-induced necroptosis; read-out: HT29 EC50. How it is done:
Cell necroptosis protection assays were performed in 96-well cell culture plates. Cells were plated in each well and cultured at 37 °C overnight. […] The cell survival rate was determined using a CCK8 cell viability assay kit and CLARIOstar (v5.61). […] All experiments were performed at least two times, and each EC50 value was expressed as mean ± standard deviation (SD).

Data set [2] in a line: Cytotoxicity at high concentration. It is filed as cell-based. The conditions noted are these: 3-10 μM.
The target in data set [3] is T1, RIPK1. Kind of data set: RIPK1 kinase assay, 33P-labeled ATP assay at Eurofins. The format is biochemical. The conditions noted are these: read-out: RIPK1 IC50. How it is done:
In vitro kinase activity assays were conducted through the Kinase Profiling Services provided by Eurofins (Eurofins, France). The protocol for the RIPK1 assay is briefly described as follows (Protocols for other kinases are very similar and can be found in http://www.eurofins.com/pharmadiscovery). RIPK1 kinase was incubated with the test compound in assay buffer containing 8 mM MOPS (pH 7.0), 0.2 mM EDTA, 250 μM […], 10 mM magnesium acetate, and 10 μM [γ-33P]-ATP for 15 min at room temperature. The reaction was initiated by the addition of the Mg/ATP mixture. After incubation for 40 min at room temperature, and the reaction was stopped by the addition of 3% phosphoric acid. A 10 μL portion of the reaction mixture was then spotted onto a P30 filter mat and washed four times for 4 min in 0.425% phosphoric acid and once in methanol prior to drying and scintillation counting.

Structures are written as SMILES.

On to `CN1C(=O)NC(Cc2c[nH]c3c(Cl)cccc23)C1=O` (centres unmarked) [Nec-1a], for which the “potency against RIPK1” value on RIPK1 [1] is listed as 317 nM.

Regarding `CC(NC(=O)c1cn(C)c2ccc(-c3ccn4nc(NC(=O)C5CC5)cc4n3)cc12)c1ccccc1` (centres unmarked) [RI-056], in the data set on HT29 cells, the EC50 is 49 nM. Also, the cytotoxicity result in data set [2] is listed as “some cytotoxicity at high concentration (3-10 μM)”. The IC50 at RIPK1 [3] came out at 65 nM.

On to `CNC(=O)c1n[nH]c2cc(-c3ccc(C(=O)NCc4ccc(OCCC5CC5)cc4)nc3)ccc12` [RI-413], for which the EC50 in the data set with HT29 cells was more than 30000 nM. Moreover, at RIPK1 [3], the IC50 is more than 10000 nM.

With `CC(NCC(=O)Nc1cccc(-c2cc(C(=O)NCc3cccc(F)c3)n(C)c2)n1)c1ccccc1F` (centres unmarked) [RI-470, N-(3-fluorobenzyl)-4-(6-(2-((1-(2-fluorophenyl)ethyl)amino)acetamido)pyridin-2-yl)-1-methyl-1H-pyrrole-2-carboxamide], in the data set with HT29 cells, the EC50 is more than 100000 nM. In addition, the IC50 at RIPK1 [3] is more than 10000 nM.

In the case of `Cc1cc(Oc2ccc(F)c(C(=O)NCc3ccc(F)cc3)n2)cc(C(=O)NCc2ccc(Br)s2)c1` [RI-539], in the data set on HT29 cells, the EC50 was more than 30000 nM. In addition, the half-maximal inhibitory concentration (IC50) at RIPK1 [3] was more than 10000 nM.

For `CCOc1ccccc1CNCC(=O)c1cn2ccc(-c3ccn4nc(NC(=O)C(C)C)nc4c3)cc2n1` [RI-753, N-(7-(2-((2-ethoxybenzyl)glycyl)imidazo[1,2-a]pyridin-7-yl)-[1,2,4]triazolo[1,5-a]pyridin-2-yl)isobutyramide], the EC50 with HT29 cells is 64 nM. The IC50 on RIPK1 [3] amounted to 463 nM.

Turning to `CC(=O)Nc1cn2cc(-c3ccc(CNC(=O)c4cc(F)ccc4OCC4CCCC4)nc3)ccc2n1` [RI-985], in the data set with HT29 cells, the EC50 was more than 30000 nM. Also, on RIPK1 [3], the IC50 was more than 10000 nM.

On to `CC(NC(=O)c1cn(C)c2ccc(-c3ccn4nc(NC(=O)C5CC5)cc4n3)cc12)c1ccc(F)cc1` (centres unmarked) [RI-1155], for which the EC50 in the data set on HT29 cells was 40 nM. Also, the cytotoxicity entry in data set [2] is recorded as “some cytotoxicity at high concentration (3-10 μM)”. In addition, the IC50 on RIPK1 [3] was 49 nM.

The EC50 is the midpoint of the concentration-response curve. As usually defined, the IC50 is the concentration needed to halve the response being measured.
